Measured values taken from the supplement of paper PMC6045584.
± gives the standard deviation of the averaged measurements.

What was measured:
[1] = compound: CCN(CC)CCCCNc1ncc2cc(-c3cc(OC)cc(OC)c3)c(NC(=O)NC(C)(C)C)nc2n1; test: surviving fraction relative to DMSO-only wells; higher = less growth inhibition; details: exposure time: 5 days
How it was run: (§1)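 Viability was determined by CellTiter-Glo luminescence, expressed as surviving fraction normalised to the median of DMSO-only wells. The cells were log-phase tumour cell lines seeded at 250–500 per well in 384-well plates and, after 24 hours, exposed continuously for five days to inhibitors at 0.5, 1, 5, 10, 50, 100, 500 and 1000 nM. Three screens per line were run, keeping only lines with replicate Pearson r >0.7 and median Z' >0.3.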

DECITABINE = compound: Nc1ncn([C@H]2C[C@H](O)[C@@H](CO)O2)c(=O)n1 [DECITABINE]; test: as above; details: exposure time: 5 days
How it was run: as §1

Row | Test System | surviving fraction ([1]; 0.5 nM) | surviving fraction ([1]; 1 nM) | surviving fraction ([1]; 5 nM) | surviving fraction ([1]; 10 nM) | surviving fraction ([1]; 50 nM) | surviving fraction ([1]; 100 nM) | surviving fraction ([1]; 500 nM) | surviving fraction ([1]; 1000 nM) | surviving fraction (DECITABINE; 0.5 nM) | surviving fraction (DECITABINE; 1 nM) | surviving fraction (DECITABINE; 5 nM) | surviving fraction (DECITABINE; 10 nM) | surviving fraction (DECITABINE; 50 nM) | surviving fraction (DECITABINE; 100 nM) | surviving fraction (DECITABINE; 500 nM) | surviving fraction (DECITABINE; 1000 nM)
1 | HT1080 SOFT TISSUE | 1.036 ± 0.009 | 1.03 ± 0.024 | 1.02 ± 0.046 | 1 ± 0.025 | 1.03 ± 0.021 | 1.01 ± 0.021 | 1.03 ± 0.059 | 1.07 ± 0.029 | 1.1 ± 0.043 | 1.08 ± 0.042 | 1.07 ± 0.024 | 1.1 ± 0.058 | 0.964 ± 0.026 | 0.928 ± 0.083 | 0.665 ± 0.06 | 0.627 ± 0.016
2 | CME SYNOVIAL | 1.08 ± 0.089 | 1.254 ± 0.0095 | 1.24 ± 0.14 | 1.25 ± 0.16 | 1.18 ± 0.1 | 1.22 ± 0.05 | 1.06 ± 0.068 | 0.969 ± 0.11 | 1.27 ± 0.17 | 1.09 ± 0.072 | 1.19 ± 0.081 | 1.19 ± 0.089 | 0.987 ± 0.083 | 0.812 ± 0.063 | 0.484 ± 0.022 | 0.48 ± 0.042
3 | U2OS BONE | 1 ± 0.011 | 0.994 ± 0.026 | 1.03 ± 0.045 | 1.01 ± 0.02 | 0.916 ± 0.012 | 0.825 ± 0.017 | 0.745 ± 0.049 | 0.739 ± 0.0095 | 1.02 ± 0.043 | 1.01 ± 0.052 | 1.04 ± 0.054 | 1.01 ± 0.021 | 0.992 ± 0.029 | 0.902 ± 0.045 | 0.679 ± 0.055 | 0.699 ± 0.013
4 | H23 LUNG | 0.958 ± 0.041 | 0.998 ± 0.065 | 0.96 ± 0.053 | 1.01 ± 0.054 | 0.983 ± 0.02 | 1.02 ± 0.013 | 1.02 ± 0.029 | 1.02 ± 0.079 | 0.987 ± 0.028 | 0.985 ± 0.034 | 0.984 ± 0.033 | 0.899 ± 0.028 | 0.803 ± 0.036 | 0.721 ± 0.057 | 0.614 ± 0.077 | 0.562 ± 0.048
5 | CAL72 BONE | 1.053 ± 0.0092 | 1.08 ± 0.054 | 1.08 ± 0.082 | 1.01 ± 0.024 | 0.833 ± 0.038 | 0.484 ± 0.013 | 0.281 ± 0.022 | 0.208 ± 0.026 | 1.04 ± 0.069 | 1.04 ± 0.03 | 1.03 ± 0.088 | 1.028 ± 0.01 | 1.06 ± 0.097 | 1.03 ± 0.14 | 0.958 ± 0.097 | 0.782 ± 0.2
6 | HCC202 BREAST | 1.05 ± 0.052 | 1.31 ± 0.39 | 1.3 ± 0.53 | 1.22 ± 0.13 | 1.27 ± 0.32 | 1.41 ± 0.073 | 1.13 ± 0.14 | 1.24 ± 0.061 | 1 ± 0.21 | 1.25 ± 0.5 | 1.23 ± 0.27 | 1.06 ± 0.27 | 1.09 ± 0.26 | 1.09 ± 0.16 | 1.23 ± 0.18 | 1.009 ± 0.0014
7 | COLO320DM LARGE INTESTINE | 0.959 ± 0.04 | 1.14 ± 0.037 | 1.11 ± 0.08 | 1.05 ± 0.072 | 1.06 ± 0.064 | 1.1 ± 0.11 | 1.03 ± 0.068 | 1.1 ± 0.041 | 1.12 ± 0.044 | 1.12 ± 0.086 | 1.01 ± 0.076 | 1.03 ± 0.048 | 1.03 ± 0.071 | 0.928 ± 0.014 | 0.8568 ± 0.0037 | 0.792 ± 0.04
8 | 93VU HEADNECK | 0.952 ± 0.063 | 0.975 ± 0.062 | 1.02 ± 0.1 | 1.03 ± 0.11 | 1.03 ± 0.095 | 0.884 ± 0.18 | 1.01 ± 0.085 | 0.949 ± 0.076 | 1.12 ± 0.086 | 1.09 ± 0.1 | 1.14 ± 0.12 | 1 ± 0.015 | 0.931 ± 0.035 | 0.933 ± 0.017 | 0.747 ± 0.03 | 0.657 ± 0.007
9 | CADOES1 SOFT TISSUE | 0.942 ± 0.1 | 0.905 ± 0.1 | 0.935 ± 0.21 | 0.913 ± 0.071 | 0.895 ± 0.076 | 0.9 ± 0.036 | 0.901 ± 0.056 | 1.05 ± 0.043 | 0.915 ± 0.1 | 0.962 ± 0.14 | 0.772 ± 0.11 | 0.951 ± 0.047 | 0.596 ± 0.096 | 0.448 ± 0.05 | 0.316 ± 0.061 | 0.278 ± 0.041
10 | YAMATO SYNOVIAL | 0.852 ± 0.029 | 1.2 ± 0.13 | 1.19 ± 0.058 | 1.31 ± 0.062 | 1.14 ± 0.024 | 1.37 ± 0.037 | 1.2 ± 0.069 | 1.08 ± 0.088 | 1.26 ± 0.05 | 1.11 ± 0.081 | 1.17 ± 0.086 | 0.995 ± 0.098 | 1.02 ± 0.081 | 1.04 ± 0.034 | 0.907 ± 0.034 | 0.811 ± 0.035
11 | HCC1395 BREAST | 0.991 ± 0.2 | 0.785 ± 0.093 | 0.968 ± 0.14 | 0.9 ± 0.021 | 0.872 ± 0.14 | 0.867 ± 0.074 | 0.826 ± 0.17 | 0.818 ± 0.18 | 1.19 ± 0.054 | 0.956 ± 0.1 | 1.34 ± 0.079 | 1.23 ± 0.072 | 1.26 ± 0.045 | 1.25 ± 0.086 | 1.17 ± 0.073 | 1.09 ± 0.031
